Data reported in patent US10898522B2, “Compositions and methods for treating graft versus host disease” (Children's Research Institute, Children's National Medical …, priority 2015, dated 2021).
“Also recorded” adds a separate entry of the source.

Legend:
HIF-1α [1] = assay: Intracellular FACS staining of HIF-1α in human T cells from spleen of GvHD mice after echinomycin; format: in vivo
From the text: (§1) FIG. 4. HIF-1α accumulates in a high proportion of human T cells derived from spleen and BM of the recipients of human BMC: Impact of echinomycin. Panel A. Representative FACS plots showing the accumulation of HIF-1α in T cells from the spleen and BM of GvHD mice. Spleen and BM cells were isolated from the spleens and BM of GvHD mice, stained with anti-human CD45, CD4, CD8, and then intracellular stained with anti-human HIF-1α. Panel B. Representative FACS plots showing the accumulation of HIF-1α in all human cells from spleens of GvHD mice. Spleen cells were isolated from the spleens of GvHD mice, stained with anti-human CD45, CD4, CD8, and then intracellular stained with anti-human HIF-1α. FACS analysis was performed to determine the percentage of HIF-1α positive cells in CD45^+CD4^+CD8-, CD45^+CD4-D8^+ and CD45^+CD4-D8-subpopulations. Panel C. Representative FACS plots showing the percentage of HIF-1α positive T cells in spleen of GvHD mice after echinomycin treatment. […]
(§2) Spleens were gently grinded with frosted objective slides and bone marrow was dissociated with syringes to obtain single-cell suspensions and passed through a nylon cell strainer, washed three times with RPMI-1640, labeled with antibodies and analyzed for the presence of different human cell populations. […]

HIF-1α [2] = assay: Western blot of human HIF-1α in spleen cells from GvHD mice after echinomycin; format: in vivo; settings: echinomycin-treated GvHD mice compared to vehicle controls
From the text: as §1
To test the significance of HIF-1α accumulation, GvHD recipient mice were treated with echinomycin, a selective inhibitor of HIF-1α. […] Further, spleen cells from GvHD mice were isolated and human HIF-1α protein levels from echinomycin-treated mice and vehicle controls were measured by western blot analysis. […]

[3] = tested on: FoxP3+ human T cells (Treg); assay: FACS of FoxP3+ cells within CD4 T cell subset from spleen and BM of GvHD mice; format: in vivo; settings: one dose of 100 μg/kg echinomycin vs vehicle
From the text: as §1, §2

humanized GvHD mice = assay: Treatment of humanized GvHD mice (newborn NSG pups transplanted with human BM cells) with echinomycin; format: in vivo, mouse
Experimental: FIG. 5. Sustained treatment of echinomycin protects mice against GvHD and eliminates expanded human leukocytes and inflammation. Panel A. Dosing regimen of echinomycin treatment for humanized GvHD mice. The day that mice were transplanted with human BM cells is defined as day 0. Each arrow represents one echinomycin treatment. The dose for each treatment is 10 μg/kg via intraperitoneal injection. Panel B. Longitudinal analysis of clinical representation of an echinomycin-treated mice. Panel C. Representative FACS plots showing the percentage of human CD45^+ cells in PBL of GvHD mice before and after echinomycin treatment. Data is one representative file from 3 mice and representative of three independent experiments. […] Data are representative of three independent experiments.
FIG. 6. Echinomycin protects mice against lethal GvHD. Panel A. Newborn NSG pups were transplanted with human 5×10^5 BM cells. The mice were treated with the dosing regimen of echinomycin listed in FIG. 5, Panel A. Panel B. Newborn NSG pups were transplanted with human 3×10^5 BM cells. The mice were treated with the dosing regimen of echinomycin listed in FIG. 5, Panel A, except treatment is started at day 17 rather than day 27. […] Data are representative of three independent experiments.
Human bone marrow mononuclear cells were isolated from healthy human adult bone marrow using density gradient separation were purchased from Stemcell Technologies (Vancouver, Canada) and Lonza (Walkersville, Md., USA). Human CD3^+ cells from BM were sorted from human BM cells using BD Influx (BD Biosciences). Cells were thawed, counted and re-suspended in 1×PBS in a concentration of 0.1-0.5×10^6 per 30 μl. 0.1-0.5×10^6 cells were transplanted via intrahepatic injection into irradiated (1.30 Gy) newborn NSG pups. Human CD45^+ cells in PBMC of recipients were detected by FACS analysis at day 17 to 20 after transplantation.
Peripheral blood was collected by sub-mandibular bleeding at different times after transplantation of human BM cells. Fluorochrome-labeled antibodies were directly added into whole blood. After 30 min of staining, the unbound antibodies were washed away and the red blood cells were lysed with BD FACS™. The stained cells were analyzed with BD FACS Canto II flow cytometry.
Immunohistochemistry was performed on tissue sections from skin, liver, lung, spleen, and kidney of humanized NSG mice. Sections were fixed with 4% paraformaldehyde and dehydrated with graded alcohol. After treatment with heated citrate buffer for antigen retrieval, sections were blocked for endogenous peroxidase activity. Sections were then incubated in 10% goat serum followed by primary antibodies at 4° C. overnight. Fixed samples were stained with the following antibodies, anti-human CD45 (MEM-28) and CD3 (ab828, Abcam PLC, Cambridge, Mass.), for detection of infiltrated human cells. After incubation for 30 minutes with secondary antibody, the specimens were visualized by DAB treatment. Sections were lightly counterstained with hematoxylin to enable visualization of nuclei.
Newborn NSG pups received 0.3-0.5×10^6 human BM cells intrahepatically. Beginning on day 17 or 27, the recipients received 5 intraperitoneal injections of echinomycin, daily at 10 μg/kg. Following 2 days of rest, another 5 intraperitoneal injections of echinomycin were administered at the same dose, once per day. The second round of treatment was performed following 5 days of rest from the prior round of treatment, using the same dose once every other day for 10 total treatments.
To better understand the importance of HIF-1α in the therapy of GvHD, the effect of HIF-1α inhibition was examined. Newborn pups were transplanted with 0.5×10^6 human BM cells via intra-hepatic injection. Twenty-seven days after transplantation, mice were treated with 10 μg/kg of echinomycin for a total of 20 treatments. […]

[4] = tested on: HIF-1α / leukemia stem cells; settings: in vivo; cited from earlier work

**Q.** With `CS[C@H]1SC[C@H]2C(=O)N(C)[C@@H](C(C)C)C(=O)OC[C@@H](NC(=O)c3cnc4ccccc4n3)C(=O)N[C@@H](C)C(=O)N(C)[C@@H]1C(=O)N(C)[C@@H](C(C)C)C(=O)OC[C@@H](NC(=O)c1cnc3ccccc3n1)C(=O)N[C@@H](C)C(=O)N2C` [echinomycin] as the compound, how does the “HIF-1α protein in HIF-1α+ T cells of spleen (FACS)” value (HIF-1α [1]; single dose of 100 μg/kg echinomycin, overnight) read?
**A.** Its value is “lost HIF-1α protein overnight”.

**Q.** What about the T cell frequencies (HIF-1α [1]; single dose of echinomycin) of the same compound?
**A.** Its T cell frequencies is “largely unaffected”.

**Q.** And the “HIF-1α protein levels in spleen cells (western blot)” value (HIF-1α [2])?
**A.** Its value is “significantly decreased”.

**Q.** And the “proportion of Tregs (FoxP3+ cells within CD4 T cell subset)” value [3]?
**A.** Its value is “no apparent difference”.

**Q.** And the “proportion of Tregs (FoxP3+ cells within CD4 T cell subset)” value ([3]; listed as Echinomycin)?
**A.** The value was “does not expand human Treg”.

**Q.** What about the median survival (humanized GvHD mice; 0.3×10^6 human BM cells, treatment started day 17, 10 μg/kg i.p.) of the same compound?
**A.** Its median survival is 119 days.

**Q.** And the “survival during the treatment period” value (humanized GvHD mice; 0.5×10^6 BM cells, 10 μg/kg, 20 treatments from day 27, all vehicle treated mice died)?
**A.** The value was “survived”.

**Q.** And the “reduction of number of human leukocytes in the peripheral blood” value (humanized GvHD mice; 0.5×10^6 human BM cells, 10 μg/kg i.p. from day 27, over 5 weeks)?
**A.** Its value is “more than 10 fold”.

**Q.** And the median survival (humanized GvHD mice; 0.5×10^6 human BM cells, treatment started day 27, 10 μg/kg i.p.)?
**A.** Its median survival is 99 days.

**Q.** What about the “life span (Kaplan-Meier survival curve) compared with vehicle” value (humanized GvHD mice; 3×10^5 or 5×10^5 BM cells, regimen of FIG. 5 Panel A) of the same compound?
**A.** Its value is “significantly prolonged life span”.

**Q.** What about the “mice protected against lethal GvHD” value (humanized GvHD mice; continuous treatment of echinomycin) of the same compound?
**A.** Its value is roughly 100%.

**Q.** And the “clinical symptoms (skin, hair)” value (humanized GvHD mice; one treated mouse, after two weeks of treatments, 10 μg/kg from day 27)?
**A.** The value was “regained smooth skin with visible regrowth of hair”.

**Q.** And the “human CD3+ T cells in organs (IHC)” value (humanized GvHD mice; skin, intestine, liver and lung, 10 μg/kg i.p. from day 27, day 75)?
**A.** The value was “elimination of T cells from all major organs; also recorded: significant reduction of CD3^+ cells”.

**Q.** And the “life span longer than that of mice treated starting at Day 27” value (humanized GvHD mice; treatment started day 17 vs day 27)?
**A.** Its value is 20 days.

**Q.** And the “adverse reactions towards hematopoietic stem cells” value [4]?
**A.** Its value is “without adverse reactions”.

**Q.** And the “efficacy in experimental leukemia and lymphoma” value [4]?
**A.** Its value is “effective in treating experimental leukemia and lymphoma”.
